Experimental data published in patent US20090156518A1, “STABLE PHARMACEUTICAL COMPOSITION COMPRISING BETA-LACTAM ANTIBIOTIC AND BUFFER” (priority 2006, published 2009).
Marks after values point to notes of the source that are not given here.

Assay: amounts of β-lactam antibiotic, β-lactamase inhibitor (C18 reverse-phase LC, UV-VIS) and aminoglycoside (HPLC-ELSD) in solution over time
Type: physicochemical

Compound: CC1(C)[C@H](C(=O)O)N2C(=O)C[C@H]2S1(=O)=O [Sulbactam sodium]
- amount of component as percentage with respect to the amount at the initial time (Example 4: cefoperazone sodium 4 g, sulbactam sodium 0.5 g, gentamicin 80 mg, citrate pH 6.75, 200 mL water, room temperature, Time 0 h): 101.4%
- amount of component as percentage with respect to the amount at the initial time (Example 4: cefoperazone sodium 4 g, sulbactam sodium 0.5 g, gentamicin 80 mg, citrate pH 6.75, 200 mL water, room temperature, Time 1 h): 101.4%
- amount of component as percentage with respect to the amount at the initial time (Example 4: cefoperazone sodium 4 g, sulbactam sodium 0.5 g, gentamicin 80 mg, citrate pH 6.75, 200 mL water, room temperature, Time 2 h): 101.5%
- amount of component as percentage with respect to the amount at the initial time (Example 4: cefoperazone sodium 4 g, sulbactam sodium 0.5 g, gentamicin 80 mg, citrate pH 6.75, 200 mL water, room temperature, Time 4 h): 109.7%
- amount of component as percentage with respect to the amount at the initial time (Example 4: cefoperazone sodium 4 g, sulbactam sodium 0.5 g, gentamicin 80 mg, citrate pH 6.75, 200 mL water, room temperature, Time 6 h): 103.2%
- amount of component as percentage with respect to the amount at the initial time (Example 5: freeze-dried cefoperazone sodium 4 g, sulbactam sodium 0.5 g, citrate pH 6.75, + amikacin sulfate 500 mg, 7 days 0° C., dissolved in 100 mL water, Time 0 h): 101.4%
- amount of component as percentage with respect to the amount at the initial time (Example 5: freeze-dried cefoperazone sodium 4 g, sulbactam sodium 0.5 g, citrate pH 6.75, + amikacin sulfate 500 mg, 7 days 0° C., dissolved in 100 mL water, Time 1 h): 101.4%
- amount of component as percentage with respect to the amount at the initial time (Example 5: freeze-dried cefoperazone sodium 4 g, sulbactam sodium 0.5 g, citrate pH 6.75, + amikacin sulfate 500 mg, 7 days 0° C., dissolved in 100 mL water, Time 2 h): 101.5%
- amount of component as percentage with respect to the amount at the initial time (Example 5: freeze-dried cefoperazone sodium 4 g, sulbactam sodium 0.5 g, citrate pH 6.75, + amikacin sulfate 500 mg, 7 days 0° C., dissolved in 100 mL water, Time 4 h): 109.7%
- amount of component as percentage with respect to the amount at the initial time (Example 5: freeze-dried cefoperazone sodium 4 g, sulbactam sodium 0.5 g, citrate pH 6.75, + amikacin sulfate 500 mg, 7 days 0° C., dissolved in 100 mL water, Time 6 h): 103.2%
- amount of component as percentage with respect to the amount at the initial time (Example 6: freeze-dried cefoperazone sodium 4 g, sulbactam sodium 1 g, citrate pH 6.75, + etimicin sulfate 200 mg, 7 days 0° C., dissolved in 100 mL water, Time 0 h): 99.62%
- amount of component as percentage with respect to the amount at the initial time (Example 6: freeze-dried cefoperazone sodium 4 g, sulbactam sodium 1 g, citrate pH 6.75, + etimicin sulfate 200 mg, 7 days 0° C., dissolved in 100 mL water, Time 1 h): 100.4%
- amount of component as percentage with respect to the amount at the initial time (Example 6: freeze-dried cefoperazone sodium 4 g, sulbactam sodium 1 g, citrate pH 6.75, + etimicin sulfate 200 mg, 7 days 0° C., dissolved in 100 mL water, Time 2 h): 100.2%
- amount of component as percentage with respect to the amount at the initial time (Example 6: freeze-dried cefoperazone sodium 4 g, sulbactam sodium 1 g, citrate pH 6.75, + etimicin sulfate 200 mg, 7 days 0° C., dissolved in 100 mL water, Time 4 h): 100.2%
- amount of component as percentage with respect to the amount at the initial time (Example 7: ceftriaxone sodium 4 g, sulbactam sodium 1 g, gentamicin sulfate 80 mg, citrate pH 6.75, 200 mL water, room temperature (22° C.), Time 0 h): 96.84%
- amount of component as percentage with respect to the amount at the initial time (Example 7: ceftriaxone sodium 4 g, sulbactam sodium 1 g, gentamicin sulfate 80 mg, citrate pH 6.75, 200 mL water, room temperature (22° C.), Time 1 h): 94.43%
- amount of component as percentage with respect to the amount at the initial time (Example 7: ceftriaxone sodium 4 g, sulbactam sodium 1 g, gentamicin sulfate 80 mg, citrate pH 6.75, 200 mL water, room temperature (22° C.), Time 2 h): 93.35%
- amount of component as percentage with respect to the amount at the initial time (Example 7: ceftriaxone sodium 4 g, sulbactam sodium 1 g, gentamicin sulfate 80 mg, citrate pH 6.75, 200 mL water, room temperature (22° C.), Time 4 h): 93.23%
- amount of component as percentage with respect to the amount at the initial time (Example 7: ceftriaxone sodium 4 g, sulbactam sodium 1 g, gentamicin sulfate 80 mg, citrate pH 6.75, 200 mL water, room temperature (22° C.), Time 6 h): 92.13%
- amount of component as percentage with respect to the amount at the initial time (Example 7: ceftriaxone sodium 4 g, sulbactam sodium 1 g, gentamicin sulfate 80 mg, citrate pH 6.75, 200 mL water, room temperature (22° C.), Time 8 h): 93.38%
- amount of component as percentage with respect to the amount at the initial time (Example 10: mezlocillin sodium 2 g, sulbactam sodium 0.5 g, etimicin sulfate 200 mg, citrate pH 6.5, 200 mL water, room temperature, Time 0 h): 98.07%
- amount of component as percentage with respect to the amount at the initial time (Example 10: mezlocillin sodium 2 g, sulbactam sodium 0.5 g, etimicin sulfate 200 mg, citrate pH 6.5, 200 mL water, room temperature, Time 1 h): 98.13%
- amount of component as percentage with respect to the amount at the initial time (Example 10: mezlocillin sodium 2 g, sulbactam sodium 0.5 g, etimicin sulfate 200 mg, citrate pH 6.5, 200 mL water, room temperature, Time 2 h): 72.96%
- amount of component as percentage with respect to the amount at the initial time (Example 10: mezlocillin sodium 2 g, sulbactam sodium 0.5 g, etimicin sulfate 200 mg, citrate pH 6.5, 200 mL water, room temperature, Time 4 h): 95.16%
- amount of component as percentage with respect to the amount at the initial time (Example 10: mezlocillin sodium 2 g, sulbactam sodium 0.5 g, etimicin sulfate 200 mg, citrate pH 6.5, 200 mL water, room temperature, Time 6 h): 99.65%
- amount of component as percentage with respect to the amount at the initial time (Example 10: mezlocillin sodium 2 g, sulbactam sodium 0.5 g, etimicin sulfate 200 mg, citrate pH 6.5, 200 mL water, room temperature, Time 8 h): 104.9%
- amount of component as percentage with respect to the amount at the initial time (Example 11: freeze-dried mezlocillin sodium, sulbactam sodium, citrate pH 6.5, 7 days 0° C., in 100 mL 5% fructose + etimicin sulfate 200 mg, Time 0 h): 114.3%
- amount of component as percentage with respect to the amount at the initial time (Example 11: freeze-dried mezlocillin sodium, sulbactam sodium, citrate pH 6.5, 7 days 0° C., in 100 mL 5% fructose + etimicin sulfate 200 mg, Time 1 h): 95.83%
- amount of component as percentage with respect to the amount at the initial time (Example 11: freeze-dried mezlocillin sodium, sulbactam sodium, citrate pH 6.5, 7 days 0° C., in 100 mL 5% fructose + etimicin sulfate 200 mg, Time 2 h): 93.75%
- amount of component as percentage with respect to the amount at the initial time (Example 11: freeze-dried mezlocillin sodium, sulbactam sodium, citrate pH 6.5, 7 days 0° C., in 100 mL 5% fructose + etimicin sulfate 200 mg, Time 4 h): 93.78%
- amount of component as percentage with respect to the amount at the initial time (Example 11: freeze-dried mezlocillin sodium, sulbactam sodium, citrate pH 6.5, 7 days 0° C., in 100 mL 5% fructose + etimicin sulfate 200 mg, Time 6 h): 95.65%
- amount of component as percentage with respect to the amount at the initial time (Example 11: freeze-dried mezlocillin sodium, sulbactam sodium, citrate pH 6.5, 7 days 0° C., in 100 mL 5% fructose + etimicin sulfate 200 mg, Time 8 h): 101.0%
- amount of component as percentage with respect to the amount at the initial time (Example 14: freeze-dried cefoperazone sodium 4 g, sulbactam sodium 2 g, citrate pH 6.75, 7 days 0° C., in 100 mL water, 10 mL + gentamicin sulfate 16 mg, room temperature, Time 0 h): 92.44%
- amount of component as percentage with respect to the amount at the initial time (Example 14: freeze-dried cefoperazone sodium 4 g, sulbactam sodium 2 g, citrate pH 6.75, 7 days 0° C., in 100 mL water, 10 mL + gentamicin sulfate 16 mg, room temperature, Time 1 h): 91.27%
- amount of component as percentage with respect to the amount at the initial time (Example 14: freeze-dried cefoperazone sodium 4 g, sulbactam sodium 2 g, citrate pH 6.75, 7 days 0° C., in 100 mL water, 10 mL + gentamicin sulfate 16 mg, room temperature, Time 2 h): 90.78%
- amount of component as percentage with respect to the amount at the initial time (Example 14: freeze-dried cefoperazone sodium 4 g, sulbactam sodium 2 g, citrate pH 6.75, 7 days 0° C., in 100 mL water, 10 mL + gentamicin sulfate 16 mg, room temperature, Time 4 h): 88.38* %
- amount of component as percentage with respect to the amount at the initial time (Example 14: freeze-dried cefoperazone sodium 4 g, sulbactam sodium 2 g, citrate pH 6.75, 7 days 0° C., in 100 mL water, 10 mL + gentamicin sulfate 16 mg, room temperature, Time 6 h): 86.86* %
- amount of component as percentage with respect to the amount at the initial time (Example 15: freeze-dried cefoperazone sodium 4 g, sulbactam sodium 4 g, citrate pH 6.75, 7 days 0° C., in 100 mL water, 10 mL + gentamicin sulfate 16 mg, room temperature, Time 0 h): 99.50%
- amount of component as percentage with respect to the amount at the initial time (Example 15: freeze-dried cefoperazone sodium 4 g, sulbactam sodium 4 g, citrate pH 6.75, 7 days 0° C., in 100 mL water, 10 mL + gentamicin sulfate 16 mg, room temperature, Time 1 h): 96.28%
- amount of component as percentage with respect to the amount at the initial time (Example 15: freeze-dried cefoperazone sodium 4 g, sulbactam sodium 4 g, citrate pH 6.75, 7 days 0° C., in 100 mL water, 10 mL + gentamicin sulfate 16 mg, room temperature, Time 2 h): 102.5%
- amount of component as percentage with respect to the amount at the initial time (Example 15: freeze-dried cefoperazone sodium 4 g, sulbactam sodium 4 g, citrate pH 6.75, 7 days 0° C., in 100 mL water, 10 mL + gentamicin sulfate 16 mg, room temperature, Time 4 h): 95.78* %
- amount of component as percentage with respect to the amount at the initial time (Example 15: freeze-dried cefoperazone sodium 4 g, sulbactam sodium 4 g, citrate pH 6.75, 7 days 0° C., in 100 mL water, 10 mL + gentamicin sulfate 16 mg, room temperature, Time 6 h): 70.74* %
- amount of component as percentage with respect to the amount at the initial time (Example 17: freeze-dried cefoperazone sodium 4 g, sulbactam sodium 1 g, citrate pH 6.75, 7 days 0° C., in 100 mL water, 10 mL + amikacin sulfate 40 mg, room temperature, Time 0 h): 105.6%
- amount of component as percentage with respect to the amount at the initial time (Example 17: freeze-dried cefoperazone sodium 4 g, sulbactam sodium 1 g, citrate pH 6.75, 7 days 0° C., in 100 mL water, 10 mL + amikacin sulfate 40 mg, room temperature, Time 1 h): 112.2%
- amount of component as percentage with respect to the amount at the initial time (Example 17: freeze-dried cefoperazone sodium 4 g, sulbactam sodium 1 g, citrate pH 6.75, 7 days 0° C., in 100 mL water, 10 mL + amikacin sulfate 40 mg, room temperature, Time 2 h): 112.6%
- amount of component as percentage with respect to the amount at the initial time (Example 17: freeze-dried cefoperazone sodium 4 g, sulbactam sodium 1 g, citrate pH 6.75, 7 days 0° C., in 100 mL water, 10 mL + amikacin sulfate 40 mg, room temperature, Time 4 h): 118.5%
- amount of component as percentage with respect to the amount at the initial time (Example 17: freeze-dried cefoperazone sodium 4 g, sulbactam sodium 1 g, citrate pH 6.75, 7 days 0° C., in 100 mL water, 10 mL + amikacin sulfate 40 mg, room temperature, Time 6 h): 123.3%
- amount of component as percentage with respect to the amount at the initial time (Example 17: freeze-dried cefoperazone sodium 4 g, sulbactam sodium 1 g, citrate pH 6.75, 7 days 0° C., in 100 mL water, 10 mL + amikacin sulfate 40 mg, room temperature, Time 8 h): 127.1%
- amount of component as percentage with respect to the amount at the initial time (Example 19: ceftriaxone sodium 2 g, sulbactam sodium 2 g, gentamicin sulfate 160 mg, citrate pH 6.75, 200 mL water, room temperature, Time 0 h): 96.84%
- amount of component as percentage with respect to the amount at the initial time (Example 19: ceftriaxone sodium 2 g, sulbactam sodium 2 g, gentamicin sulfate 160 mg, citrate pH 6.75, 200 mL water, room temperature, Time 1 h): 94.43%
- amount of component as percentage with respect to the amount at the initial time (Example 19: ceftriaxone sodium 2 g, sulbactam sodium 2 g, gentamicin sulfate 160 mg, citrate pH 6.75, 200 mL water, room temperature, Time 2 h): 93.35%
- amount of component as percentage with respect to the amount at the initial time (Example 19: ceftriaxone sodium 2 g, sulbactam sodium 2 g, gentamicin sulfate 160 mg, citrate pH 6.75, 200 mL water, room temperature, Time 4 h): 93.23%
- amount of component as percentage with respect to the amount at the initial time (Example 19: ceftriaxone sodium 2 g, sulbactam sodium 2 g, gentamicin sulfate 160 mg, citrate pH 6.75, 200 mL water, room temperature, Time 6 h): 92.13%
- amount of component as percentage with respect to the amount at the initial time (Example 19: ceftriaxone sodium 2 g, sulbactam sodium 2 g, gentamicin sulfate 160 mg, citrate pH 6.75, 200 mL water, room temperature, Time 8 h): 93.38%
